Like-named read-outs stand apart in the source and are kept apart here.
Legend:
[1] = Compound 1 human absorption, metabolism, and excretion study (single oral dose of [14C] Compound 1); assay type: in vivo; conditions: for % of Administered Dose in Feces Samples, Sum: sum 0-144 h; for % Total Radioactivity Pool of Hamilton Pools (0-24 h): blood/plasma samples
Protocol: An open label-study was conducted, assessing the mass balance, pharmacokinetics, and metabolite profiles of a single oral dose of [14C] Compound 1:
Blood/plasma, urine, and feces were collected from participants for 4 to 10 days after administration.
Human discharge criteria includes that a minimum of 90% of the administered radioactive dose is recovered; and that less than or equal to 1% of the administered radioactive dose is recovered in excreta (urine and feces combined) in 2 consecutive 24-hour urine and fecal collection samples.

[2] = Permeability in Caco-2 cells (absorptive direction A-B); assay type: in vitro ADME; conditions: human, Caco-2, 4% BSA in receiver, read-out: CACO2 Pm
Protocol: (§1) Caco-2 cells were grown in 96-well transwell plates with a seeding density of 14000 cell/well in DMEM medium. To determine the permeability in the absorptive direction (A-B), the test compound in HBSS was added to the donor compartment (apical side), and 4% BSA in HBSS was added into the receiver compartment (basolateral side). To determine whether a compound is a P-gp substrate, permeability values were measured in both the A-B and B-A directions (bidirectional transport assay) in the absence of 4% BSA. Digoxin and cyclosporine A were included as positive controls for P-gp substrate and inhibitor, respectively, to ensure the functionality of P-gp in the bidirectional transport assay. The test compound at various concentrations was added in the donor compartment (apical side for A-B transport and basolateral side for B-A transport) while HBSS solution was added in the receiver compartment (basolateral side for A-B transport and apical side for B-A transport). For permeability studies in the A-B direction, the donor volume was 0.075 mL, and the receiver volume was 0.25 mL. For permeability studies in the B-A direction, the donor volume was 0.25 mL, and the receiver volume was 0.075 mL. The incubation was carried out at 37° C. for 120 minutes. Transepithelial electrical resistance (TEER) was measured before and after the 120 minutes incubation to ensure the integrity of the cell monolayers. At the end of the incubation period, samples were removed from both the donor and receiver sides and mixed with acetonitrile for protein precipitation. The supernatants were collected after centrifugation for analysis using LC-MS/MS method.
(§2) Permeability coefficient (Papp) values from Caco-2 studies were determined using the following equation: Papp(cm/s)=(F*VD)/(SA*MD) where the flux rate (F, mass/time) was calculated from the slope of cumulative amounts of compound of interest on the receiver side, SA is the surface area of the cell membrane, VD is the donor volume, and MD is the initial amount of the solution in the donor chamber.

[3] = biological target: FGFR3 (Homo sapiens (Human), UniProt P22607); test: FGFR Enzymatic Assay (FRET peptide phosphorylation), FGFR3; assay type: biochemical
Chain of FGFR3 (P22607 23-806): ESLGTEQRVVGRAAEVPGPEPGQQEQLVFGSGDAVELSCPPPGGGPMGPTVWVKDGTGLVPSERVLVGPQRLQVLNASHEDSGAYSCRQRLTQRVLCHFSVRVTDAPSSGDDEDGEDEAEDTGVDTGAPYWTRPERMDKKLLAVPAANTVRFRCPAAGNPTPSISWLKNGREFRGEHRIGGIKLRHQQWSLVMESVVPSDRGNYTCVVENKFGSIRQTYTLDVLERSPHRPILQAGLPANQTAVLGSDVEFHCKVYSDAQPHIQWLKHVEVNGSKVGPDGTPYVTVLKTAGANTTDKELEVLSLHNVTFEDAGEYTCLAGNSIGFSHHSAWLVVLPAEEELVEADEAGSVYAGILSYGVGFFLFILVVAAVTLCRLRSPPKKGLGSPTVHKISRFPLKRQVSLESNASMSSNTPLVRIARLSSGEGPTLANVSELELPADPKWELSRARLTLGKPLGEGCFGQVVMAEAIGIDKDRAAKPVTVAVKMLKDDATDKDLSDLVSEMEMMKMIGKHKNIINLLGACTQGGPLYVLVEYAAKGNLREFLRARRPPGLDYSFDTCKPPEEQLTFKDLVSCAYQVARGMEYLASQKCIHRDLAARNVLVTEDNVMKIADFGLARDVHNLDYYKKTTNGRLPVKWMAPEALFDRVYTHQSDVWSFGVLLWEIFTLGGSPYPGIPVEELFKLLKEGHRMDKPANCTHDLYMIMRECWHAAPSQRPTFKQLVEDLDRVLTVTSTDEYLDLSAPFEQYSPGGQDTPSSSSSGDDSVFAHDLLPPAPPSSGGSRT
Protocol: (§3) The inhibitor potency of the exemplified compounds was determined in an enzyme discontinuous assay that measures peptide phosphorylation using FRET measurements to detect product formation. Inhibitors were serially diluted in DMSO and a volume of 0.2 μL was transferred to the wells of a 384-well plate. For the isoforms of FGFR (−1, −2, −3 wild-type and mutant isoforms, −4) including phosphorylated and un-phosphorylated proteins, a 5 μL/well volume of enzyme diluted in assay buffer (50 mM HEPES, 10 mM MgCl2, 1 mM EGTA, 0.01% Tween-20, 5 mM DTT, pH 7.5) was added to the plate and pre-incubated with inhibitor for 5 to 15 minutes at ambient temperature. Appropriate controls (enzyme blank and enzyme with no inhibitor) were included on the plate. The reaction was initiated by the addition of a 5 μL/well volume containing both biotinylated […] […] The ATP Km values were pre-determined for each FGFR isoform in a separate series of experiments. […] The plate was allowed to equilibrate for ˜10 minutes at ambient temperature before scanning on a PheraStar plate reader (BMG Labtech) instrument.
(§4) Either GraphPad prism or XLfit was used to analyze the data. The IC50 values were derived by fitting the data to a four parameter logistic equation producing a sigmoidal dose-response curve with a variable Hill coefficient. Prism equation: Y=Bottom+(Top−Bottom)/(1+10^((Log IC50−X)*Hill slope)); […]

[4] = biological target: FGFR1 (Homo sapiens (Human), UniProt P11362); test: FGFR Enzymatic Assay (FRET peptide phosphorylation), FGFR1; assay type: biochemical
Chain of FGFR1 (P11362 22-822): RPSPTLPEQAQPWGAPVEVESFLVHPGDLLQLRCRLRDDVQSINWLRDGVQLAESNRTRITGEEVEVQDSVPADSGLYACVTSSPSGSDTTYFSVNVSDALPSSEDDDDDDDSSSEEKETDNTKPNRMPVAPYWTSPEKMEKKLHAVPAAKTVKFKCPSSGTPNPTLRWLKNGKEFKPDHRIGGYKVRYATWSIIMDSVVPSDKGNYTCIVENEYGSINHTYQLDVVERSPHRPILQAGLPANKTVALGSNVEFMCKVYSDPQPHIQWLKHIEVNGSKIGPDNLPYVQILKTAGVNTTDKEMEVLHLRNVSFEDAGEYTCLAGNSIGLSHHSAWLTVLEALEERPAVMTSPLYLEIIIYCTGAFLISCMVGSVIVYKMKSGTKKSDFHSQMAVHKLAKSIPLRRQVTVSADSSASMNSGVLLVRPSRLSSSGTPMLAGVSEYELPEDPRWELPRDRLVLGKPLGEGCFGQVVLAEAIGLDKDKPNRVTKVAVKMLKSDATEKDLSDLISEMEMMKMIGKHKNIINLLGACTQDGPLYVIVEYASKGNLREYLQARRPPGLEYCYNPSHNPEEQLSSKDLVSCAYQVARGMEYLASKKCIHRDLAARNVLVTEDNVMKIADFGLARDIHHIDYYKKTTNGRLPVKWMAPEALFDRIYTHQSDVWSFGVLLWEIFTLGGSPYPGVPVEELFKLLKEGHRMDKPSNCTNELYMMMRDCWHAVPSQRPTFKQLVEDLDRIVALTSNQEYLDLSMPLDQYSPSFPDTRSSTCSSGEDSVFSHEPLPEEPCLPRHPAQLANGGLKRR
Protocol: as §3, §4

[5] = biological target: P-gp (Homo sapiens (Human), UniProt P08183); test: Bidirectional transport across Caco-2 monolayers (P-gp mediated transport); assay type: in vitro ADME; conditions: for Papp A→B at 120 min, 3 μM / Papp B→A at 120 min, 3 μM / efflux ratio at 120 min, 3 μM / Papp A→B at 120 min, 30 μM / Papp B→A at 120 min, 30 μM / efflux ratio at 120 min, 30 μM / Papp A→B at 120 min, 1 μM / Papp B→A at 120 min, 1 μM: human; for efflux ratio at 120 min, 3 μM / efflux ratio at 120 min, 30 μM: read-out: Efflux Ratio (B-A/A-B)
Chain of P-gp (P08183 whole entry): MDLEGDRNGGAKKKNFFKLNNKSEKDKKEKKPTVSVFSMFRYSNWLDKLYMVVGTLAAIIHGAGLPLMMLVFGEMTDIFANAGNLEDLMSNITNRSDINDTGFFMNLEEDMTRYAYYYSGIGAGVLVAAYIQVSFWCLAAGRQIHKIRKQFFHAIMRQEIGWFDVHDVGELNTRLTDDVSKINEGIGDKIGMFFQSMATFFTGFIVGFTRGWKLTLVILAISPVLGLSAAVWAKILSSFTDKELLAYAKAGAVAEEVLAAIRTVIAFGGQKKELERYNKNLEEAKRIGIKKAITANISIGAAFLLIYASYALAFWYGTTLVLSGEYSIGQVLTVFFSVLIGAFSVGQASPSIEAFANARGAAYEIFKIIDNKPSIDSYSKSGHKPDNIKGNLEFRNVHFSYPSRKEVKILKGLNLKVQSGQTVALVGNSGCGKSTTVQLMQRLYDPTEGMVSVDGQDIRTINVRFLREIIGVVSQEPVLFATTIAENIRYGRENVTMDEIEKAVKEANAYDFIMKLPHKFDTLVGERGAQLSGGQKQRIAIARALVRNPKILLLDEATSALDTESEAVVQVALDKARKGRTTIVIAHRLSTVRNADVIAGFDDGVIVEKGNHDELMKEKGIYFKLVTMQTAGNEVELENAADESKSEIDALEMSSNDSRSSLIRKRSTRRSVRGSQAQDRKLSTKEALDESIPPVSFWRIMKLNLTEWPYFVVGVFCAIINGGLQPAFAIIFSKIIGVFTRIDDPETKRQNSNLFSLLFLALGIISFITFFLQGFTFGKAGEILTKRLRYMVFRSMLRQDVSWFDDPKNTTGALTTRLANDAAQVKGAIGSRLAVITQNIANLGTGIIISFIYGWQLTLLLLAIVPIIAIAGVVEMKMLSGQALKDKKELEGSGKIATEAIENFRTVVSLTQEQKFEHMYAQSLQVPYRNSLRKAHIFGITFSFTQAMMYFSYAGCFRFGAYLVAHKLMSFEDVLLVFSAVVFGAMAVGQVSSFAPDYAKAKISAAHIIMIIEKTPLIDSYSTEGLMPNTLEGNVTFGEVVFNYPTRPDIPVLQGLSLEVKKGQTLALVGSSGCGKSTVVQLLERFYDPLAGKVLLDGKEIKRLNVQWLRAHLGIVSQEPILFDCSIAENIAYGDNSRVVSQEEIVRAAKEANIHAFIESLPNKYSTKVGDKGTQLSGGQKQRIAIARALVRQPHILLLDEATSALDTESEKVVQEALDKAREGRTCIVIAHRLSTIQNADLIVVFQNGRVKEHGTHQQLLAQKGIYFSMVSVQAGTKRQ
Protocol: as §1, §2
The efflux ratio from Caco-2 studies was calculated as the ratio of the Papp measured in the B-A direction divided by the Papp in the A-B direction.

[6] = test system: Caco-2 cells; test: Permeability in Caco-2 cells (absorptive direction A-B); assay type: in vitro ADME; conditions: 4% BSA in receiver
Protocol: as §1, §2

[7] = biological target: FGFR2 (Homo sapiens (Human), UniProt P21802); test: FGFR Enzymatic Assay (FRET peptide phosphorylation), FGFR2; assay type: biochemical
Chain of FGFR2 (P21802 22-821): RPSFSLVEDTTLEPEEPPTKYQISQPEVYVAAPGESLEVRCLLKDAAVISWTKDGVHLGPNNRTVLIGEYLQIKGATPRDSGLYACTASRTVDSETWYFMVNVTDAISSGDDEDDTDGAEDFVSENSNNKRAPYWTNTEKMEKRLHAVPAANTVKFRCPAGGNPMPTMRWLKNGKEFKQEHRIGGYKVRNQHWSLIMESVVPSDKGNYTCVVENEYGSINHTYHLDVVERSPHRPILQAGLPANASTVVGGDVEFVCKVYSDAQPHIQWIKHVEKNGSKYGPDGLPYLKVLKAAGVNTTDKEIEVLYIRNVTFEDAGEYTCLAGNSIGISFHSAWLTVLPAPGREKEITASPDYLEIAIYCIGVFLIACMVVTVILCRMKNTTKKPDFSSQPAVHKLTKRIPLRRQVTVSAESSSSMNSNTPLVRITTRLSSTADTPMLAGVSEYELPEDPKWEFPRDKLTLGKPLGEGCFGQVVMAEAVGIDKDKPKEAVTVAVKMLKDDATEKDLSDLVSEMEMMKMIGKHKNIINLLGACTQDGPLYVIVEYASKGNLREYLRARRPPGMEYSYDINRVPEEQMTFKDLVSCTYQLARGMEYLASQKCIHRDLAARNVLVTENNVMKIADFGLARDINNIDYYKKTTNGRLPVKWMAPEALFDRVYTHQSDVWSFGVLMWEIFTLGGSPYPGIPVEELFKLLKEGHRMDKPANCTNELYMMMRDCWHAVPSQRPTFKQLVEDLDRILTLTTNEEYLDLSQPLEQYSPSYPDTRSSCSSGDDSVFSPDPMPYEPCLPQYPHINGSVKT
Protocol: as §3, §4

[8] = biological target: tyrosine-phosphorylated Fibroblast Growth Factor Receptor 2 alpha (FGFR2α) in KATO III cells (Homo sapiens, UniProt P21802); test: KATOIII Whole Blood pFGFR2α ELISA Assay; assay type: cell-based
Chain of tyrosine-phosphorylated Fibroblast Growth Factor Receptor 2 alpha (FGFR2α) in KATO III cells (P21802 22-821 limits assumed): as the sequence (P21802 22-821) above
Protocol: To measure tyrosine-phosphorylated Fibroblast Growth Factor Receptor 2 alpha (FGFR2a) in KATO III spiked whole blood assay, KATO III cells were purchased from ATCC and maintained in Iscove's medium with 20% FBS (Gibco/Life Technologies). […] 50 uL of the cells were then spiked into a 96-deep well 2 ml polypropylene assay block (Costar) in the presence or absence of a concentration range of test compounds and 300 ul human heparinized whole blood (Biological Specialty Corp, Colmar Pa.). After 4 hours incubation in 37° C., the red cells were lysed using Qiagen EL buffer and the cell lysates were resuspended in lysis buffer (Cell Signaling) containing standard protease inhibitor cocktail (Calbiochem/EMD) and PMSF (Sigma) for 30 minutes ice. […] IC50 determination was performed by fitting the curve of inhibitor percent inhibition versus the log of the inhibitor concentration using the GraphPad Prism 5.0 software.

[9] = Caco-2, with cyclosporine A (CSA) 10 μM, with CSA 10 μM
[10] = Caco-2, with cyclosporine A (CSA) 5 μM, with CSA 5 μM
[11] = radioactive dose, single oral dose, healthy male subjects

SMILES | % of Administered Dose in Feces Samples ([1]; 24-48 h) [%] | % of Administered Dose in Feces Samples ([1]; 48-72 h) [%] | % of Administered Dose in Feces Samples ([1]; 72-96 h) [%] | % of Administered Dose in Feces Samples ([1]; 96-120 h) [%] | % of Administered Dose in Feces Samples ([1]; 120-144 h) [%] | % of Administered Dose in Feces Samples, Sum [1] [%] | Papp A→B at 120 min [2] [×10⁻⁶ cm/s] | Papp A→B at 120 min, 30 μM ([5]; Caco-2, no inhibitor) [×10⁻⁶ cm/s] | Papp B→A at 120 min, 30 μM ([5]; Caco-2, no inhibitor) [×10⁻⁶ cm/s] | CACO2 Pm [6] [×10E−6 cm/s] | % of Administered Dose in Feces Samples ([1]; 0-24 h) [%] | IC50 [3] [nM] | IC50 [4] [nM] | IC50 [7] [nM] | % Total Radioactivity Pool of Hamilton Pools (0-24 h) ([1]; 0-24 h) [%] | also measured
[2H]C([2H])([2H])Oc1cc(OC([2H])([2H])[2H])c(F)c(N2Cc3cnc4[nH]c(CN5CCOCC5)cc4c3N(CC)C2=O)c1F [Compound 6, 3-(2,6-difluoro-3,5-bis(methoxy-d3)phenyl)-1-ethyl-8-(morpholinomethyl)-1,3,4,7-tetrahydro-2H-pyrrolo[3′,2′:5,6]pyrido[4,3-d]pyrimidin-2-one] |  |  |  |  |  |  | 16 |  |  |  |  |  |  |  |  | 
CCN1C(=O)N(c2c(F)c(OC)cc(OC)c2F)C(O)c2cnc3[nH]c(CN4CCOCC4)cc3c21 (centres unmarked) [Compound 3, 3-(2,6-difluoro-3,5-dimethoxyphenyl)-1-ethyl-4-hydroxy-8-(morpholinomethyl)-1,3,4,7-tetrahydro-2H-pyrrolo[3′,2′:5,6]pyrido[4,3-d]pyrimidin-2-one] |  |  |  |  |  |  |  |  |  |  |  | 100 to 500 | 10 to 100 | 10 to 100 | 6.0 | IC50 ([8]; read-out: FGFR2_WB_ELISA-KATOIII IC50; KATO III cells spiked into human whole blood, 4 hours): 1000 to 3000 nM
CCN1C(=O)N(c2c(F)c(OC)cc(OC)c2F)Cc2cnc3[nH]c(CN4CCOCC4)cc3c21 [Compound 1, 3-(2,6-difluoro-3,5-dimethoxyphenyl)-1-ethyl-8-(morpholin-4-ylmethyl)-1,3,4,7-tetrahydro-2H-pyrrolo[3′,2′:5,6]pyrido[4,3-d]pyrimidin-2-one] | 0.6 | 0.4 | 0.2 | 0.0 | 0.0 | 1.4 | 11 | 21 ± 1.1 | 13 ± 1.6 | 11 | 0.1 |  |  |  | 64.5 | Papp A→B at 120 min, 1 μM [5, 10]: 12 ± 2.3 ×10⁻⁶ cm/s; Papp B→A at 120 min, 1 μM [5, 10]: 9 ± 1.8 ×10⁻⁶ cm/s; Papp A→B at 120 min, 30 μM [5, 10]: 18 ± 0.75 ×10⁻⁶ cm/s; Papp B→A at 120 min, 30 μM [5, 10]: 12 ± 1.3 ×10⁻⁶ cm/s; Papp A→B at 120 min, 1 μM ([5]; Caco-2, no inhibitor): 7.3 ± 1.6 ×10⁻⁶ cm/s; Papp B→A at 120 min, 1 μM ([5]; Caco-2, no inhibitor): 11 ± 0.95 ×10⁻⁶ cm/s; overall recovery of radioactivity in urine and feces ([1]; over the 240 hour study): 95.1%; time of peak total radioactivity and plasma Compound 1 concentrations ([1]; post dose, single oral dose, fasted): about 2.0 hours; dose recovered in feces [1, 11]: 82.4%; dose recovered in urine [1, 11]: 12.6%; % of Administered Dose in Urine Sample ([1]; urine, 0-6 h): 0.5%; % of Administered Dose in Urine Sample ([1]; urine, 6-12 h): 0.2%; % of Administered Dose in Urine Sample ([1]; urine, 12-24 h): 0.2%; % of Administered Dose in Urine Sample ([1]; urine, 24-48 h): 0.2%; % of Administered Dose in Urine Sample, Sum ([1]; urine, sum 0-48 h): 1.0%

The next lines start with results.

% of Administered Dose in Feces Samples ([1]; 24-48 h) [%] | % of Administered Dose in Feces Samples ([1]; 48-72 h) [%] | % of Administered Dose in Feces Samples ([1]; 72-96 h) [%] | % of Administered Dose in Feces Samples ([1]; 96-120 h) [%] | % of Administered Dose in Feces Samples ([1]; 120-144 h) [%] | % of Administered Dose in Feces Samples, Sum [1] [%] | Papp A→B at 120 min [2] [×10⁻⁶ cm/s] | Papp A→B at 120 min, 30 μM ([5]; Caco-2, no inhibitor) [×10⁻⁶ cm/s] | Papp B→A at 120 min, 30 μM ([5]; Caco-2, no inhibitor) [×10⁻⁶ cm/s] | CACO2 Pm [6] [×10E−6 cm/s] | % of Administered Dose in Feces Samples ([1]; 0-24 h) [%] | SMILES | IC50 [3] [nM] | IC50 [4] [nM] | IC50 [7] [nM] | % Total Radioactivity Pool of Hamilton Pools (0-24 h) ([1]; 0-24 h) [%] | also measured
0.4 | 0.6 | 0.5 | 0.0 | 0.1 | 1.6 |  |  |  |  |  | CCN1C(=O)N(c2c(F)c(O)cc(OC)c2F)Cc2cnc3[nH]c(C(=O)O)cc3c21 [Compound 5, 3-(2,6-difluoro-3-hydroxy-5-methoxyphenyl)-1-ethyl-2-oxo-2,3,4,7-tetrahydro-1H-pyrrolo[3′,2′: 5,6]pyrido[4,3-d]pyrimidine-8-carboxylic acid] |  |  |  |  | 
11.4 | 14.5 | 14.5 | 1.6 | 2.9 | 44.4 | 0.5 | 0.41 ± 0.07 | 7.7 ± 2.8 | 0.5 | <0.1 | CCN1C(=O)N(c2c(F)c(O)cc(OC)c2F)Cc2cnc3[nH]c(CN4CCOCC4)cc3c21 [Compound 2, 3-(2,6-difluoro-3-hydroxy-5-methoxyphenyl)-1-ethyl-8-(morpholinomethyl)-1,3,4,7-tetrahydro-2H-pyrrolo[3′,2′:5,6]pyrido[4,3-d]pyrimidin-2-one] | < 10 | < 10 | < 10 |  | substrate for Pgp transport ([5]; comparison of efflux ratios at 30 μM): more effective substrate for Pgp transport than Compound 1; Papp A→B at 120 min, 3 μM [5, 9]: 0.65 ± 0.11 ×10⁻⁶ cm/s; Papp B→A at 120 min, 3 μM [5, 9]: 2.2 ± 0.49 ×10⁻⁶ cm/s; efflux ratio at 120 min, 3 μM [5, 9]: 3.3 ± 1.2; Papp A→B at 120 min, 30 μM [5, 9]: 2 ± 0.33 ×10⁻⁶ cm/s; Papp B→A at 120 min, 30 μM [5, 9]: 3.1 ± 1.2 ×10⁻⁶ cm/s; efflux ratio at 120 min, 30 μM [5, 9]: 1.5 ± 0.59; Papp A→B at 120 min, 3 μM ([5]; Caco-2, no inhibitor): 0.43 ± 0.15 ×10⁻⁶ cm/s; Papp B→A at 120 min, 3 μM ([5]; Caco-2, no inhibitor): 11 ± 8 ×10⁻⁶ cm/s; efflux ratio at 120 min, 3 μM ([5]; Caco-2, no inhibitor): 25 ± 11; efflux ratio at 120 min, 30 μM ([5]; Caco-2, no inhibitor): 19; IC50 ([8]; KATO III cells spiked into human whole blood, 4 hours; read-out: FGFR2_WB_ELISA-KATOIII IC50): 50 to 250 nM
0.5 | 2.3 | 1.1 | 0.2 | 0.4 | 4.5 |  |  |  |  |  | CCN1C(=O)N(c2c(F)c(O)cc(O)c2F)Cc2cnc3[nH]c(CN4CCOCC4)cc3c21 [Compound 4, 3-(2,6-difluoro-3,5-dihydroxyphenyl)-1-ethyl-8-(morpholinomethyl)-1,3,4,7-tetrahydro-2H-pyrrolo[3′,2′:5,6]pyrido[4,3-d]pyrimidin-2-one] |  |  |  |  | 
